From ChEMBL document CHEMBL3286359, “Synthesis and SAR of substituted pyrazolo[1,5-a]quinazolines as dual mGlu(2)/mGlu(3) NAMs” (Bioorg Med Chem Lett, 2014) come the findings set out here.

What all share (format): functional, cell-based
Test [1] has as its target Metabotropic glutamate receptor 2 (Rattus norvegicus) (UniProt P31421). The experiment in a line: Positive allosteric modulatory activity at rat mGlu2 receptor transfected in HEK293 cells co-expressing mouse Galpha15 assessed as potentiation of glutamate-dependent calcium signaling at 3 uM by fluorescence plate reader analysis in presence of glutamate at EC20 concentration.

The target of test [2] is Metabotropic glutamate receptor 3 (Rattus norvegicus) (UniProt P31422). Description: Positive allosteric modulatory activity at rat mGlu3 receptor transfected in HEK293 cells co-expressing mouse Galpha15 assessed as potentiation of glutamate-dependent calcium signaling at 3 uM by fluorescence plate reader analysis in presence of glutamate at EC20 concentration.
Chain of Metabotropic glutamate receptor 3 (Rattus norvegicus) (P31422 23-879 limits assumed): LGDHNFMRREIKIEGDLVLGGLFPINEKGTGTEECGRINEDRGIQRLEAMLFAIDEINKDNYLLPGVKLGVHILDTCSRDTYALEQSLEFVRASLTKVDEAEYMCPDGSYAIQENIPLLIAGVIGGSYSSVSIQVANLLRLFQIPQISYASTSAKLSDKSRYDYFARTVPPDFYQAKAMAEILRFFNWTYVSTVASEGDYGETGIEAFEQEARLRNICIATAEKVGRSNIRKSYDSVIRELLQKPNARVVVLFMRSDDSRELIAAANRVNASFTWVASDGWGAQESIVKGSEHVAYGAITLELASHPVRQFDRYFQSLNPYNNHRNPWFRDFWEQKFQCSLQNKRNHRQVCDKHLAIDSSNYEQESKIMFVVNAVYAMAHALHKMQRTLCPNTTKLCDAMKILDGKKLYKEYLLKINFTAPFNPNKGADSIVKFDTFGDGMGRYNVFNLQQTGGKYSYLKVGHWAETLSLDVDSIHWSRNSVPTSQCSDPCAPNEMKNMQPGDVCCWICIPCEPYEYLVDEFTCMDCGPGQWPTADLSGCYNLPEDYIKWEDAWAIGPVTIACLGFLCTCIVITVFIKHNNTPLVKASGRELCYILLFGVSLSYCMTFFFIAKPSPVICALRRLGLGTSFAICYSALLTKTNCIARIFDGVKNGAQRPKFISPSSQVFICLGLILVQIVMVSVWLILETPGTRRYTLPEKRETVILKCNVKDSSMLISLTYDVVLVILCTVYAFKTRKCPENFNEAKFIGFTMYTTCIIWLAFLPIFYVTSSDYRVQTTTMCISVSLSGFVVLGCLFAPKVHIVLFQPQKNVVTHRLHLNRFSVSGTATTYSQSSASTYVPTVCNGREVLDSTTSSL
The target in test [3] is Metabotropic glutamate receptor 3 (Rattus norvegicus, UniProt P31422). The experiment in a line: Inhibition of rat mGlu3 receptor transfected in HEK293 cells coexpressing mouse Galpha15 assessed as decrease in glutamate-induced calcium signaling by fluorescence plate reader analysis in presence of glutamate at EC87 concentration.
Chain of Metabotropic glutamate receptor 3 (P31422 whole entry): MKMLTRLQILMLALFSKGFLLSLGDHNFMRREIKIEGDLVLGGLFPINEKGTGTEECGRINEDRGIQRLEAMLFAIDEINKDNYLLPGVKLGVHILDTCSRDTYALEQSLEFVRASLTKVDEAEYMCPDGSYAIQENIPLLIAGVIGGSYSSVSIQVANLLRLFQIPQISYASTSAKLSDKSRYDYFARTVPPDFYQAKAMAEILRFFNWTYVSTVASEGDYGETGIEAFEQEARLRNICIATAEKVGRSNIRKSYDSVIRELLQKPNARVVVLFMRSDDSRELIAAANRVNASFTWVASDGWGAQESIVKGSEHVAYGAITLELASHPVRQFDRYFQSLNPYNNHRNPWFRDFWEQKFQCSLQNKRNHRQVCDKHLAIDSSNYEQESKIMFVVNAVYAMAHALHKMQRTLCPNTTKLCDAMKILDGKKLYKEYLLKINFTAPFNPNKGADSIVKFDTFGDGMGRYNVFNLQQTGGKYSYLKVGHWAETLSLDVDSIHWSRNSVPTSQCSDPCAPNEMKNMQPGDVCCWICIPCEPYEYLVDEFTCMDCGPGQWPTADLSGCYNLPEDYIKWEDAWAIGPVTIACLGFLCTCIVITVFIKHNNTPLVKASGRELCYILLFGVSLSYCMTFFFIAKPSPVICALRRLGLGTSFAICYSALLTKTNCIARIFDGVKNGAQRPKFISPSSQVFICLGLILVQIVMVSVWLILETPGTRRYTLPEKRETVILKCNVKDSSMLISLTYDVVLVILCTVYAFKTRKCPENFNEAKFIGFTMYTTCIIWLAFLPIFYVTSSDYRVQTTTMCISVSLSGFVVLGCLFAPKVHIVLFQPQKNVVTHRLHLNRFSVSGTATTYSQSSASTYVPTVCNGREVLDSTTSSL
Test [4] deals with Metabotropic glutamate receptor 2 (Rattus norvegicus, UniProt P31421). The experiment in a line: Inhibition of rat mGlu2 receptor transfected in HEK293 cells coexpressing mouse Galpha15 assessed as decrease in glutamate-induced calcium signaling by fluorescence plate reader analysis in presence of glutamate at EC76 concentration.
Chain of Metabotropic glutamate receptor 2 (P31421 whole entry): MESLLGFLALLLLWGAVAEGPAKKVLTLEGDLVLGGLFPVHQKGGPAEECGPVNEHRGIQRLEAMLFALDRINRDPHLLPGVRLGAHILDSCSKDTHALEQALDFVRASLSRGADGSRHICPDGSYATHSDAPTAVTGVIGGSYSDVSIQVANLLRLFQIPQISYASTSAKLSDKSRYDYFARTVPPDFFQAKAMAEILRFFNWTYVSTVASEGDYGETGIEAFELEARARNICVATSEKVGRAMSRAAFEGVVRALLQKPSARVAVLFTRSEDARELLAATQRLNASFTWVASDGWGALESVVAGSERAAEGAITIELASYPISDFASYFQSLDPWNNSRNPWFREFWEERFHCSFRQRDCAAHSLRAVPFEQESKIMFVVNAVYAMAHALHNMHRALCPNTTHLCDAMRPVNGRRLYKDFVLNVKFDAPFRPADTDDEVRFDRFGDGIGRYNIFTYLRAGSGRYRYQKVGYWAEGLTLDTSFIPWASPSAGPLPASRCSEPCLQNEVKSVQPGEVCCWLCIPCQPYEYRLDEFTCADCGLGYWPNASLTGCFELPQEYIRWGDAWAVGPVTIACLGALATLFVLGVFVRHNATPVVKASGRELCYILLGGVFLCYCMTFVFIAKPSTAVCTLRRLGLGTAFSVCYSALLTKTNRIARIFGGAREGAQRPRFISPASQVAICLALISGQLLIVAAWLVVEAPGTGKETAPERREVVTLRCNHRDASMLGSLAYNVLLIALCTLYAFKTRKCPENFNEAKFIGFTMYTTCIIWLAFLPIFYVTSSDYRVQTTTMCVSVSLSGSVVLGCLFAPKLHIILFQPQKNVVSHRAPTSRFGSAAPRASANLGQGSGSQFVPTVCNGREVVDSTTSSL
Test [5] has as its target Metabotropic glutamate receptor 3 (Rattus norvegicus) (UniProt P31422). The experiment in a line: Inhibition of rat mGlu3 receptor transfected in HEK293 cells coexpressing mouse Galpha15 assessed as decrease in glutamate-induced calcium signaling at 3 uM by fluorescence plate reader analysis in presence of glutamate at EC87 concentration.
The target of test [6] is Metabotropic glutamate receptor 2 (Rattus norvegicus) (UniProt P31421). The experiment in a line: Inhibition of rat mGlu2 receptor transfected in HEK293 cells coexpressing mouse Galpha15 assessed as decrease in glutamate-induced calcium signaling at 3 uM by fluorescence plate reader analysis in presence of glutamate at EC76 concentration.
Chain of Metabotropic glutamate receptor 2 (Rattus norvegicus) (P31421 19-872 limits assumed): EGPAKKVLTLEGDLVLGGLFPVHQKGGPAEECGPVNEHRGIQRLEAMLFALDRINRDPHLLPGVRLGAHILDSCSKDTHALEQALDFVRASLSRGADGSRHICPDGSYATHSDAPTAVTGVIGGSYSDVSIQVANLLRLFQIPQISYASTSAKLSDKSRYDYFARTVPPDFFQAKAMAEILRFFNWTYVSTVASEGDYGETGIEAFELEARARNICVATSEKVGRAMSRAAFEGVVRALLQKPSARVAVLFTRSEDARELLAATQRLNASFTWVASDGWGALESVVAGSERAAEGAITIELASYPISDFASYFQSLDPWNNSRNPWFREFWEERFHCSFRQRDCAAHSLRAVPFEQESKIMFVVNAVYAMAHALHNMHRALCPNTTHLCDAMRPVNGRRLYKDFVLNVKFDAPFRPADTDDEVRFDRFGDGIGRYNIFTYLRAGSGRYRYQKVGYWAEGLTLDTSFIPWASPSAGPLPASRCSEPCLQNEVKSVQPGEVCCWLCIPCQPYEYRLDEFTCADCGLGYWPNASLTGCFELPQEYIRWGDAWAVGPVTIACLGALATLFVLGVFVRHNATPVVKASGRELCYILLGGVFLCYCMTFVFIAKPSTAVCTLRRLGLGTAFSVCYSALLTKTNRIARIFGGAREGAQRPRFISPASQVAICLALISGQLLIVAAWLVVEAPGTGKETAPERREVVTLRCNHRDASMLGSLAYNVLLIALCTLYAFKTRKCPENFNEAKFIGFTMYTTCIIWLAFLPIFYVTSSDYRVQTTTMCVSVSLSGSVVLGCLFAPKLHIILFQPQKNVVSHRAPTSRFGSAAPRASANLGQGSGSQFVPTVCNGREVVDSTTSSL

Active and inactive are the calls of the source. No cut-off for these calls is given here. A value given as a limit tells only on which side of the number the result lay.

For the compound `Cn1c(=O)c2ccc(-c3cccnc3)cc2n2nc(-c3cccc(Br)c3)cc12`, the result in test [1] and in test [2] was inactive. Also, the IC50 in test [3] and in test [4] was more than 10000 nM throughout.
Regarding `Cc1ccc2c(=O)n(C)c3cc(-c4ccccc4)nn3c2c1`, the values for the inhibition in test [5] and in test [6] were 59% and 17%, respectively. For the same compound, the outcome in test [1] and in test [2] was inactive.
Turning to `Cn1c(=O)c2ccc(-c3ccccc3)cc2n2nc(-c3ccc(F)cc3)cc12`, the inhibition in test [5] came out at 64%; in test [6], 12%. Moreover, the result in test [1] and in test [2] was inactive.
Turning to `Cn1c(=O)c2ccc(-c3ccccc3)cc2n2nc(-c3ccccc3)cc12`, the result in test [1] and in test [2] was inactive. For the same compound, the IC50 in test [3] and in test [4] was more than 10000 nM each time.
Consider `Cn1c(=O)c2ccc(-c3cccc(S(N)(=O)=O)c3)cc2n2nc(-c3ccc(F)cc3)cc12`, for which the outcome in test [1] and in test [2] was inactive. Further, the IC50 in test [3] turned out to be 1990 nM; in test [4], 3950 nM.
With `Cn1c(=O)c2ccc(-c3ccc4nccnc4c3)cc2n2nc(-c3ccccc3)cc12`, the inhibition worked out at 16% in test [5] and 0% in test [6].
On to `Cn1c(=O)c2ccc(-c3ccncc3)cc2n2nc(-c3ccccc3)cc12`, for which the figures for the IC50 in test [3] and in test [4] were 509 nM and 1770 nM, respectively.
Turning to `O=c1[nH]c2cc(-c3ccccc3)nn2c2cc(-c3cccnc3)ccc12`, the values for the inhibition in test [5] and in test [6] were 8% and 4%, respectively.
Consider `Cn1c(=O)c2ccc(-c3ccccc3)cc2n2nc(-c3cccc(F)c3)cc12`, for which the inhibition in test [5] stood at 39%; in test [6], 2%. Also, the result in test [1] and in test [2] was inactive.
As for `Cn1c(=O)c2ccc(-c3cccc(S(N)(=O)=O)c3)cc2n2nc(-c3cccc(F)c3)cc12`, the result in test [1] and in test [2] was inactive. In addition, the 50% inhibitory concentration (IC50) in test [3] and in test [4] was more than 10000 nM each time.
As to `Cn1c(=O)c2ccc(-c3cnc4ccccc4c3)cc2n2nc(-c3ccccc3)cc12`, the inhibition in test [5] was 33%; in test [6], 4%.
On to `O=c1c2ccc(-c3cccnc3)cc2n2nc(-c3ccccc3)cc2n1CCO`, for which the IC50 in test [3] was 3150 nM; in test [4] it was 4650 nM.
`Cn1c(=O)c2ccc(-c3cccnc3)cc2n2nc(-c3cccc(F)c3)cc12`: the outcome in test [1] and in test [2] was inactive. Besides, the values for the IC50 in test [3] and in test [4] were 247 nM and 1560 nM, respectively.
For `Cc1cccc(-c2cc3n(C)c(=O)c4ccc(-c5cccnc5)cc4n3n2)c1`, the result in test [1] and in test [2] was inactive. For the same compound, the IC50 in test [3] was 530 nM; in test [4], 1790 nM.
Take `COc1ccc(-c2ccc3c(=O)n(C)c4cc(-c5cccc(OC)c5)nn4c3c2)cc1`: the results for the inhibition in test [5] and in test [6] were 48% and 6%, respectively. In addition, the result in test [1] and in test [2] was inactive.
On to `COc1ccc(-c2ccc3c(=O)n(C)c4cc(-c5cccc(C)c5)nn4c3c2)cc1`, for which the figures for the inhibition in test [5] and in test [6] were 34% and 0%, respectively. The result in test [1] and in test [2] was inactive.
As for `COc1cccc(-c2cc3n(C)c(=O)c4ccc(C)cc4n3n2)c1`, the result in test [1] and in test [2] was inactive. For the same compound, the IC50 in test [3] and in test [4] was more than 10000 nM throughout.
Turning to `COc1ccc(-c2ccc3c(=O)n(C)c4cc(-c5cccc(Br)c5)nn4c3c2)cc1`, the inhibition in test [5] turned out to be 23%; in test [6], 4%. In addition, the outcome in test [1] and in test [2] was inactive.
Take `COc1ccc(-c2ccc3c(=O)n(C)c4cc(-c5cccc(Cl)c5)nn4c3c2)cc1`: the inhibition was 31% in test [5] and 9% in test [6]. Moreover, the result in test [1] and in test [2] was inactive.
With `COc1cccc(-c2cc3n(C)c(=O)c4ccc(-c5cccnc5)cc4n3n2)c1`, the outcome in test [1] and in test [2] was inactive. The half-maximal inhibitory concentration (IC50) in test [3] was determined as 1180 nM; in test [4] it was 3120 nM.
Regarding `Cn1c(=O)c2ccc(-c3ccc4ccncc4c3)cc2n2nc(-c3ccccc3)cc12`, the IC50 in test [3] is 4510 nM; in test [4], more than 10000 nM.
In the case of `COc1cccc(-c2cc3n(C)c(=O)c4ccc(-c5ccccc5)cc4n3n2)c1`, the outcome in test [1] and in test [2] was inactive. Further, the concentration for half-maximal inhibition (IC50) in test [3] and in test [4] was more than 10000 nM throughout.
Take `COc1ccc(-c2ccc3c(=O)n(C)c4cc(-c5ccc(F)cc5)nn4c3c2)cc1`: the result in test [1] and in test [2] was inactive. For the same compound, the IC50 in test [3] and in test [4] was more than 10000 nM in each case.
As for `Cn1c(=O)c2ccc(-c3cccnc3)cc2n2nc(-c3cccc(Cl)c3)cc12`, the outcome in test [1] and in test [2] was inactive. In addition, the IC50 in test [3] stood at 293 nM; in test [4], 564 nM.
Regarding `Cc1cccc(-c2cc3n(C)c(=O)c4ccc(-c5ccccc5)cc4n3n2)c1`, the inhibition in test [5] is 49%; in test [6], 7%. The outcome in test [1] and in test [2] was inactive.
In the case of `Cn1c(=O)c2ccc(-c3cccnc3)cc2n2nc(-c3ccc(F)cc3)cc12`, the result in test [1] and in test [2] was inactive. Moreover, the figures for the IC50 in test [3] and in test [4] were 67 nM and 427 nM, respectively.
Take `Cn1c(=O)c2ccc(-c3cccc(S(N)(=O)=O)c3)cc2n2nc(-c3ccccc3)cc12`: the outcome in test [1] and in test [2] was inactive. Further, the IC50 in test [3] worked out at 884 nM.
As to `Cn1c(=O)c2ccc(-c3cccnc3)cc2n2nc(-c3ccccc3)cc12`, the outcome in test [1] and in test [2] was inactive. Besides, the concentration for half-maximal inhibition (IC50) in test [3] stood at 165 nM; in test [4], 852 nM.
Regarding `COc1ccc(-c2ccc3c(=O)n(C)c4cc(-c5cccc(F)c5)nn4c3c2)cc1`, the inhibition turned out to be 2% in test [5] and 6% in test [6]. Further, the outcome in test [1] and in test [2] was inactive.
For the compound `Cn1c(=O)c2ccc(-c3ccc4cn[nH]c4c3)cc2n2nc(-c3ccccc3)cc12`, the half-maximal inhibitory concentration (IC50) in test [3] and in test [4] was more than 10000 nM each time.
Regarding `Cc1ccc2c(=O)n(C)c3cc(-c4ccc(F)cc4)nn3c2c1`, the result in test [1] and in test [2] was inactive. Moreover, the IC50 in test [3] and in test [4] was more than 10000 nM throughout.
Consider `Cn1c(=O)c2ccc(-c3ccc4cc[nH]c4c3)cc2n2nc(-c3ccccc3)cc12`, for which the figures for the inhibition in test [5] and in test [6] were 34% and 9%, respectively.
In the case of `Cn1c(=O)c2ccc(-c3ccccc3)cc2n2nc(-c3cccc(Br)c3)cc12`, the inhibition was 28% in test [5] and 8% in test [6]. Further, the outcome in test [1] and in test [2] was inactive.
With `CC(=O)n1c(=O)c2ccc(-c3ccccc3)cc2n2nc(-c3ccccc3)cc12`, the results for the inhibition in test [5] and in test [6] were 8% and 3%, respectively.
For the compound `Cc1ccc2c(=O)n(C)c3cc(-c4cccc(F)c4)nn3c2c1`, the inhibition in test [5] stood at 38%; in test [6] it was 16%. Moreover, the outcome in test [1] and in test [2] was inactive.
With `CC(=O)n1c(=O)c2ccc(-c3cccnc3)cc2n2nc(-c3ccccc3)cc12`, the 50% inhibitory concentration (IC50) in test [3] and in test [4] was more than 10000 nM throughout.
On to `Cn1c(=O)c2ccc(-c3ccccc3)cc2n2nc(-c3cccc(Cl)c3)cc12`, for which the inhibition was determined as 19% in test [5] and 7% in test [6]. In addition, the result in test [1] and in test [2] was inactive.
Turning to `O=c1c2ccc(-c3ccccc3)cc2n2nc(-c3ccccc3)cc2n1CCO`, the inhibition stood at 3% in test [5] and 0% in test [6].
On to `COc1ccc(-c2ccc3c(=O)n(C)c4cc(-c5ccccc5)nn4c3c2)cc1`, for which the inhibition in test [5] was 0%. The result in test [1] and in test [2] was inactive.
On to `COc1cccc(-c2cc3n(C)c(=O)c4ccc(-c5cccc(S(N)(=O)=O)c5)cc4n3n2)c1`, for which the outcome in test [1] and in test [2] was inactive. The results for the half-maximal inhibitory concentration (IC50) in test [3] and in test [4] were 696 nM and 1390 nM, respectively.
For the compound `O=c1[nH]c2cc(-c3ccccc3)nn2c2cc(-c3ccccc3)ccc12`, the figures for the inhibition in test [5] and in test [6] were 6% and 2%, respectively.
